Source: ChEMBL document CHEMBL1201862, “PubChem BioAssay data set” (2004)
Active and inactive are the calls of the source. Rule as the data show it, for most assays here: actives have a measured IC50 and inactives only a lower limit.

Experiments:
[1] = biological target: T1, Corticotropin-releasing factor receptor 2/Corticotropin-releasing factor-binding protein (Homo sapiens, UniProt P24387+Q13324); assay: activators of CRF receptor 2 with binding protein – uHTS hits, confirmation (AID 602473); assay type: functional; details: read-out: EC50_Mean
T1 sequence (Q13324 whole entry): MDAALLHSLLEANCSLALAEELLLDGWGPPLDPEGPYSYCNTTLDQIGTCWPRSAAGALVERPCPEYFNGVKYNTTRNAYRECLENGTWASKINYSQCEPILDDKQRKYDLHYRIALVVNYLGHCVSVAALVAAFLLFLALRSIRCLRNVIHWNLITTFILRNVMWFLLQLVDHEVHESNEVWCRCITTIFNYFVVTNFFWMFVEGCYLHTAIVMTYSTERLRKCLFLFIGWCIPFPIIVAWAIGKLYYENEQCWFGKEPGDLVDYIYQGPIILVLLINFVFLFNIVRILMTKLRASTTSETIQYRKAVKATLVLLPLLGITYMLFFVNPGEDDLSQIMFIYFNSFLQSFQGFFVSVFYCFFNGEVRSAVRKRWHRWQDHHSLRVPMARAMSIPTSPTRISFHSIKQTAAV
T1 sequence (P24387 whole entry): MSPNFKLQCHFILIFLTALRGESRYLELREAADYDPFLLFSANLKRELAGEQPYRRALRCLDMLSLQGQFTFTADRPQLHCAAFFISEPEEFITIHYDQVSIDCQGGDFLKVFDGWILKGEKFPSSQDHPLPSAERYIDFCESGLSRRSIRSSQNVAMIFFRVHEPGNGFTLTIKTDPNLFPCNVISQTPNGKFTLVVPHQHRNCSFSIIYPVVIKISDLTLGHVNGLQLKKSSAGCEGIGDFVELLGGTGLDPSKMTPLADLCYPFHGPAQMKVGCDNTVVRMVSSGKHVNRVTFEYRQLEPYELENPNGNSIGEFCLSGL

[2] = biological target: T2, Tyrosine-protein phosphatase non-receptor type 7 (Homo sapiens, UniProt P35236); assay type: functional
T2 sequence (P35236 whole entry): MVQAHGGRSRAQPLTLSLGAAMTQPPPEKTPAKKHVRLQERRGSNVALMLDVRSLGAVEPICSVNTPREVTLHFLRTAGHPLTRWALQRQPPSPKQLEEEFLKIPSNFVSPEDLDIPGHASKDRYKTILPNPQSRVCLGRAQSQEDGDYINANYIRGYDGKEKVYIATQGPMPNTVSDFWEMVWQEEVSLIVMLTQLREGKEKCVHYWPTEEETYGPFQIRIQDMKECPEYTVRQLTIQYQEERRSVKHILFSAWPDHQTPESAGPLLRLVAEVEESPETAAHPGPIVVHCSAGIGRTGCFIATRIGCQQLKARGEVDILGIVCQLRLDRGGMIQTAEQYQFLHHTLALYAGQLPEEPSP

[3] = biological target: T3, Tyrosine-protein phosphatase non-receptor type 22 (Homo sapiens, UniProt Q9Y2R2); assay type: functional
T3 sequence (Q9Y2R2 whole entry): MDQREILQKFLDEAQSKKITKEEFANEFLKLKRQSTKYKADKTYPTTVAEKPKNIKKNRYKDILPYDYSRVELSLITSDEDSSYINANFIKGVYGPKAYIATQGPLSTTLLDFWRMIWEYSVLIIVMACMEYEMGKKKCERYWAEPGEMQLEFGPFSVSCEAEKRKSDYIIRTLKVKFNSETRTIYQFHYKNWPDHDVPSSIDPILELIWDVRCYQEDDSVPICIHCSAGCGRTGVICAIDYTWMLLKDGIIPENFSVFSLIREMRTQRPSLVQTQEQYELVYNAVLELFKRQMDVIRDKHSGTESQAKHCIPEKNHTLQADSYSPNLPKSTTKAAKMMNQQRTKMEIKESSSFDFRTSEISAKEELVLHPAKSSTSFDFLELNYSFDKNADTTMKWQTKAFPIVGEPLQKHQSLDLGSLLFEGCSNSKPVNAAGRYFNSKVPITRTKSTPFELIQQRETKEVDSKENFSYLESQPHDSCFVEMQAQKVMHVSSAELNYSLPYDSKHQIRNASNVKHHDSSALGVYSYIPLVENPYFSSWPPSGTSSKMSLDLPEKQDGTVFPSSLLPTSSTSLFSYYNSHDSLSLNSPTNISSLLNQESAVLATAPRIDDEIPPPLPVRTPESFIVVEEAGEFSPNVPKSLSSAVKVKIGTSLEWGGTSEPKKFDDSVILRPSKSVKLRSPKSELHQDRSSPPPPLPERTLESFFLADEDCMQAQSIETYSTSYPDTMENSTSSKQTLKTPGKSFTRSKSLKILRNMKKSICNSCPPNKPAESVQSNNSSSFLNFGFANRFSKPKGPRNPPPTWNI

[4] = biological target: T3, Tyrosine-protein phosphatase non-receptor type 22; assay type: functional; remark: listed apart in the source
[5] = biological target: T1, Corticotropin-releasing factor receptor 2/Corticotropin-releasing factor-binding protein; assay: Dose Response confirmation of uHTS hits for small molecule antagonists of the CRF-binding protein and CRF-R2 receptor complex.; assay type: functional; details: read-out: IC50_Mean
[6] = biological target: T4, Ubiquitin-conjugating enzyme E2 N (Homo sapiens, UniProt P61088); assay type: functional
T4 sequence (P61088 whole entry): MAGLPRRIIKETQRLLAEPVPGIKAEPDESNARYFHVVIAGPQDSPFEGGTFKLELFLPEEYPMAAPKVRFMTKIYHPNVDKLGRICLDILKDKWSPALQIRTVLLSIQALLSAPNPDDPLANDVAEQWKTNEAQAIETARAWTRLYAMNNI

cells = assay type: functional
[7] = Vero E6 cell cytotoxicity, dose response, cytotoxicity control for non-replicating M. tuberculosis project, secondary assay (AID 492998); assay type: functional, VeroE6; details: Vero C1008
[8] = THP-1 cell cytotoxicity, dose response, cytotoxicity control for non-replicating M. tuberculosis project (AID 489025); assay type: functional
[9] = biological target: T5, Heat shock factor protein 1 (Mus musculus, UniProt P38532); assay: enhancement of HSF1-driven luciferase signal – cell-based, NIH3T3, luminescence, dose retest, confirmation (AID 435004); assay type: functional;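 also: stress induced by proteasome inhibitor MG132 added 30 min after compound; luciferase reporter driven by HSF1 response element in NIH3T3 cells; actives raise luminescence as potentiators of the MG132 stress response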
T5 sequence (P38532 whole entry): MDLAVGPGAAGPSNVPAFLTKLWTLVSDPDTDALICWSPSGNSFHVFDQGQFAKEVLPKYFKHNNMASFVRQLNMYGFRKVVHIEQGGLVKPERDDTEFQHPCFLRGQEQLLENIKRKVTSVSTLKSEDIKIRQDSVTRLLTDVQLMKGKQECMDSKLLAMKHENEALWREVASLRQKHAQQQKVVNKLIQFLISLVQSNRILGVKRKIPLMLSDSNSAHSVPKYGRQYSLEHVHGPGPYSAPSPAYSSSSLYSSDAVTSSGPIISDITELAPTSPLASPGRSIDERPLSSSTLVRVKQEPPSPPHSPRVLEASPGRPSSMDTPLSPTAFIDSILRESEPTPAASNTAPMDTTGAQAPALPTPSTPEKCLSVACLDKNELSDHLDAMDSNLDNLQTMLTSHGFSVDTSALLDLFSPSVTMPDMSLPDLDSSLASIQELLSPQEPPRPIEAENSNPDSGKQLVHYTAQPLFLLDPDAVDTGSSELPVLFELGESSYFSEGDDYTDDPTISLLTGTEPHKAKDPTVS

[10] = biological target: Intestinal-type alkaline phosphatase (Homo sapiens, UniProt P09923); assay: inhibition of human intestinal alkaline phosphatase – biochemical, dose response (AID 488876); assay type: functional
Sequence of Intestinal-type alkaline phosphatase (Homo sapiens, UniProt P09923) (P09923 whole entry): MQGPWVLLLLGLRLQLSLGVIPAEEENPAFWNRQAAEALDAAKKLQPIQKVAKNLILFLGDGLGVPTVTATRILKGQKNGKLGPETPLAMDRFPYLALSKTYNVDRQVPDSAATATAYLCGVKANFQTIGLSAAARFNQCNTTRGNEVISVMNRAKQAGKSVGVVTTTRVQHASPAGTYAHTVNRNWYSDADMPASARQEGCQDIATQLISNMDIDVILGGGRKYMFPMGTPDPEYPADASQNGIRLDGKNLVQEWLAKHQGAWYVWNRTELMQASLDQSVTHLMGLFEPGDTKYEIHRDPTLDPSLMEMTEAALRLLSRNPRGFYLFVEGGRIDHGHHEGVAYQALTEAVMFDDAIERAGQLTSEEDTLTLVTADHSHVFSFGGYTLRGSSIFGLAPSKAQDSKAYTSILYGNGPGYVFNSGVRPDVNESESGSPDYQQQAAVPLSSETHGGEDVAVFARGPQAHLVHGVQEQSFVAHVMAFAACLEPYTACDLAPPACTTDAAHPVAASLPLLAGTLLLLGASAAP

[11] = biological target: T6, Alkaline phosphatase, tissue-nonspecific isozyme (Homo sapiens, UniProt P05186); assay: TNAP enzyme inhibition by screening hits, dose response, selectivity assay for mouse IAP inhibitor project, biochemical, human TNAP, uHTS hits (AID 488906); assay type: functional
T6 sequence (P05186 whole entry): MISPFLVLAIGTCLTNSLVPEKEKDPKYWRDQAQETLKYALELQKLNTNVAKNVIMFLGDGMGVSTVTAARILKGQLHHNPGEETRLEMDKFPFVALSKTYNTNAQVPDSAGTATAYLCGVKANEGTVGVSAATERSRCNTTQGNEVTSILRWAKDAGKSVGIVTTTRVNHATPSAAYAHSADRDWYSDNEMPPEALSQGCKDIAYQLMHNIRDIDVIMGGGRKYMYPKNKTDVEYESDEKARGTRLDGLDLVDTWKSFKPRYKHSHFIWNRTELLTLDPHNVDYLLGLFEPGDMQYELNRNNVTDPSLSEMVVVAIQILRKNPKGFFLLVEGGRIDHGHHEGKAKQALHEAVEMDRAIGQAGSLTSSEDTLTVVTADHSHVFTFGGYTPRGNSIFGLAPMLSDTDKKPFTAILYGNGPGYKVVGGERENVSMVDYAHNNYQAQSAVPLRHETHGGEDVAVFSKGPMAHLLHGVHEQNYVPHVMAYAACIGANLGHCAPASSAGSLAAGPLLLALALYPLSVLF

[12] = biological target: Intestinal-type alkaline phosphatase (Mus musculus, UniProt P24822); assay: PubChem AID 488785; assay type: functional
Sequence of Intestinal-type alkaline phosphatase (Mus musculus, UniProt P24822) (P24822 whole entry): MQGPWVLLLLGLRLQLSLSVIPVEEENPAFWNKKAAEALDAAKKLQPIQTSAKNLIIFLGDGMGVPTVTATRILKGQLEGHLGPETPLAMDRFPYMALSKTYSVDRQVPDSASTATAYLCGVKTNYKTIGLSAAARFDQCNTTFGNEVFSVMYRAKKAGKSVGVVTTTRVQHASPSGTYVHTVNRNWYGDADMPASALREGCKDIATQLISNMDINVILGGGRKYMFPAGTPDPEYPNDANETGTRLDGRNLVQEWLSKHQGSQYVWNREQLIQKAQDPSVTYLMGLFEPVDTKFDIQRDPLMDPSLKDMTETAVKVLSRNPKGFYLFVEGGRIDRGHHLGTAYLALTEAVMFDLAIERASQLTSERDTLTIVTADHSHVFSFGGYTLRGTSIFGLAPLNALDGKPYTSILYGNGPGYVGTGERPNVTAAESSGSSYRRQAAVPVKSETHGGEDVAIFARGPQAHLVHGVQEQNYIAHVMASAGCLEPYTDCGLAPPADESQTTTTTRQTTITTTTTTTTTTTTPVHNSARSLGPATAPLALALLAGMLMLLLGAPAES

[13] = biological target: T4, Ubiquitin-conjugating enzyme E2 N; assay type: functional; remark: listed apart in the source
Bcl-2-related protein A1 = biological target: T7, Bcl-2-related protein A1 (Mus musculus, UniProt Q07440); assay type: functional;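 also: confirmatory dose–response counterscreen on Bfl-1, used to check hits from a UBC13 polyubiquitin inhibitor campaign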
T7 sequence (Q07440 whole entry): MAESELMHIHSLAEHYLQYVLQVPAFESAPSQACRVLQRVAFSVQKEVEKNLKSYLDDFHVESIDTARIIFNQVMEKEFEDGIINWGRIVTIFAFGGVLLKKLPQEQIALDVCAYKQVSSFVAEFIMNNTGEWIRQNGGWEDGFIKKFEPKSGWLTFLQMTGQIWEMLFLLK

[14] = biological target: T8, Microphthalmia-associated transcription factor (Homo sapiens, UniProt O75030); assay: reducers of TRPM1 reporter luminescence, concentration series – cell-based, SK-MEL-5, cherry-picked, set 3, MITF inhibitor project, dose response (AID 493073); assay type: functional;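 also: SK-MEL-5 melanoma cells with luciferase driven by the MITF target TRPM1 promoter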
T8 sequence (O75030 whole entry): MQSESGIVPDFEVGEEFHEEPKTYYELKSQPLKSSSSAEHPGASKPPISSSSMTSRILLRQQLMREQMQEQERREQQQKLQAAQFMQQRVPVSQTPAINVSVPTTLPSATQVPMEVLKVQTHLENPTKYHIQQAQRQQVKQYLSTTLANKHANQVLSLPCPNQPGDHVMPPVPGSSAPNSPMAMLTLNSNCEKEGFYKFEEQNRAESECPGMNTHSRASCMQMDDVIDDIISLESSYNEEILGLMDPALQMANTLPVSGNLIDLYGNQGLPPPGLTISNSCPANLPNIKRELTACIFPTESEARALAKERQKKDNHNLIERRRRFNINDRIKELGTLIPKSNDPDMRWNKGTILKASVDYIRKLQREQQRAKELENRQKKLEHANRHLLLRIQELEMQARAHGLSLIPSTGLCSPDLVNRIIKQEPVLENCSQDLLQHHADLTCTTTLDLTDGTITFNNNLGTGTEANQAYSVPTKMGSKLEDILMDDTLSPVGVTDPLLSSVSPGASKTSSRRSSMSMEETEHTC

In the case of CCOc1ccc(C(=O)Nc2ccc(Cl)cn2)cc1Cl, the EC50 [1] was > 53 µM (inactive), the IC50 [2] was > 79.4 µM (inactive) and the IC50 [3] was > 79.4 µM (inactive). The IC50 [4] was > 79.4 µM (inactive) and the IC50 [5] was > 47.1 µM (inactive).
In the case of Cc1cc(NC(=O)Cn2c(=O)n(CCCCC(=O)NC3CCN(Cc4ccccc4)CC3)c(=O)c3ccccc32)[nH]n1, the IC50 [2] was > 79.4 µM (inactive), the IC50 [3] was > 79.4 µM (inactive) and the IC50 [4] was > 79.4 µM (inactive). For the same molecule, the IC50 [6] was > 20 µM (inactive).
For Cc1ccc(-c2cc(C(F)F)nc(S(C)(=O)=O)n2)cc1, the IC50 (cells) was 7.88 µM (active), the CC50 [7] was > 20 µM (active) and the CC50 [8] was 23.9 µM (active). The EC50 [9] was 13.1 µM (active).
With Cc1cc(F)ccc1S(=O)(=O)Nc1ccc(O)c(Sc2nnc[nH]2)c1 the IC50 [10] was 2.12 µM (active), the IC50 [11] was 5.44 µM (active) and the IC50 [12] was 2.3 µM (active).
For CCOC(=O)NC(=O)C(=CNc1ccc(C)cc1)C(=O)NC(=O)OCC, the IC50 [2] was > 79.4 µM (inactive), the IC50 [3] was > 79.4 µM (inactive) and the IC50 [4] was > 79.4 µM (inactive).
In the case of Cc1ccc(CN2CCC(CNC(=O)c3ccc(NC(=O)C4=CSCCO4)cc3)CC2)cc1, the IC50 [13] was > 20 µM (inactive), the IC50 (Bcl-2-related protein A1) was > 20 µM (inactive) and the IC50 [6] was 19.4 µM (active).
With O=C(CNC(=O)c1cccc(F)c1)N/N=C/c1ccc([N+](=O)[O-])s1 the IC50 (cells) was 30.7 µM (active), the CC50 [7] was > 20 µM (active) and the AC50 [14] was 7.45 µM (active). The CC50 [8] was 28 µM (active).
In the case of O=[N+]([O-])c1cc(Br)cc(/C=N/n2cnnc2)c1O, the IC50 [2] was > 79.4 µM (inactive), the IC50 [3] was > 79.4 µM (inactive) and the IC50 [4] was > 79.4 µM (inactive).
